Assay results published in the NIST ThermoML archive (doi:10.1016/j.jct.2019.02.025).

Columns and labels:
[1] = refractive index (Na D-line) (dimensionless); settings: 101.33 kPa, Liquid, Standard Abbe refractometry
[2] = for mass density / kinematic viscosity: 101.33 kPa, Liquid; for mass density: Vibrating tube method; for surface tension liquid-gas / kinematic viscosity: Surface laser light scattering (SLLS)

CCCCCC(=O)OC [methyl hexanoate]
Settings | kinematic viscosity [m2/s] | mass density [kg/m3] | refractive index | surface tension liquid-gas [mN/m]
[1], 278.15 K | – | – | 1.41212 | –
[1], 283.15 K | – | – | 1.40984 | –
[1], 288.15 K | – | – | 1.40757 | –
[1], 293.15 K | – | – | 1.40529 | –
[1], 298.15 K | – | – | 1.403 | –
[1], 303.15 K | – | – | 1.4007 | –
[1], 308.15 K | – | – | 1.39841 | –
[1], 313.15 K | – | – | 1.3961 | –
[1], 318.15 K | – | – | 1.39373 | –
[1], 323.15 K | – | – | 1.39136 | –
[1], 328.15 K | – | – | 1.38902 | –
[1], 333.15 K | – | – | 1.38667 | –
[1], 338.15 K | – | – | 1.38432 | –
[1], 343.15 K | – | – | 1.38169 | –
[1], 348.15 K | – | – | 1.37961 | –
[1], 353.15 K | – | – | 1.37725 | –
[1], 358.15 K | – | – | 1.3749 | –
[2], 293.15 K | – | 884.44 | – | –
[2], 298.14 K | 1.02e-06 | – | – | 24.58
[2], 303.15 K | – | 874.79 | – | –
[2], 313.15 K | – | 865.12 | – | –
[2], 323.15 K | – | 855.4 | – | –
[2], 323.17 K | 7.49e-07 | – | – | 22.44
[2], 333.15 K | – | 845.68 | – | –
[2], 343.15 K | – | 835.87 | – | –
[2], 348.18 K | 5.74e-07 | – | – | 20.35
[2], 353.15 K | – | 825.97 | – | –
[2], 363.15 K | – | 815.95 | – | –
[2], 373.15 K | – | 805.49 | – | –
[2], 373.21 K | 4.53e-07 | – | – | 18.03
[2], 383.15 K | – | 795.6 | – | –
[2], 393.15 K | – | 785.23 | – | –
[2], 398.2 K | 3.74e-07 | – | – | 15.63
[2], 403.15 K | – | 774.67 | – | –
[2], 413.15 K | – | 763.86 | – | –
[2], 423.17 K | 3.25e-07 | – | – | 13.36
[2], 448.17 K | 2.82e-07 | – | – | 11.18

CCCCCCCC(=O)OC [methyl octanoate]
Settings | kinematic viscosity [m2/s] | mass density [kg/m3] | refractive index | surface tension liquid-gas [mN/m]
[1], 278.15 K | – | – | 1.42385 | –
[1], 283.15 K | – | – | 1.42168 | –
[1], 288.15 K | – | – | 1.41951 | –
[1], 293.15 K | – | – | 1.41734 | –
[1], 298.15 K | – | – | 1.41516 | –
[1], 303.15 K | – | – | 1.41298 | –
[1], 308.15 K | – | – | 1.41079 | –
[1], 313.15 K | – | – | 1.40854 | –
[1], 318.15 K | – | – | 1.40629 | –
[1], 323.15 K | – | – | 1.40405 | –
[1], 328.15 K | – | – | 1.40183 | –
[1], 333.15 K | – | – | 1.39965 | –
[1], 338.15 K | – | – | 1.3975 | –
[1], 343.15 K | – | – | 1.39535 | –
[1], 348.15 K | – | – | 1.3932 | –
[1], 353.15 K | – | – | 1.39104 | –
[1], 358.15 K | – | – | 1.38886 | –
[2], 293.15 K | – | 876.58 | – | –
[2], 298.19 K | 1.51e-06 | – | – | 24.65
[2], 303.15 K | – | 866.75 | – | –
[2], 313.15 K | – | 858.95 | – | –
[2], 323.15 K | – | 850.13 | – | –
[2], 323.21 K | 1.09e-06 | – | – | 23.02
[2], 333.15 K | – | 841.3 | – | –
[2], 343.15 K | – | 832.44 | – | –
[2], 348.23 K | 8.31e-07 | – | – | 21.61
[2], 353.15 K | – | 823.54 | – | –
[2], 363.15 K | – | 814.59 | – | –
[2], 373.15 K | – | 805.56 | – | –
[2], 373.28 K | 6.5e-07 | – | – | 19.62
[2], 383.15 K | – | 796.52 | – | –
[2], 393.15 K | – | 787.36 | – | –
[2], 398.31 K | 5.19e-07 | – | – | 17.62
[2], 403.15 K | – | 778.1 | – | –
[2], 413.15 K | – | 768.72 | – | –
[2], 423.15 K | – | 759.27 | – | –
[2], 423.31 K | 4.3e-07 | – | – | 15.47
[2], 433.15 K | – | 749.61 | – | –
[2], 443.15 K | – | 739.56 | – | –
[2], 448.33 K | 3.59e-07 | – | – | 13.44
[2], 453.15 K | – | 729.82 | – | –

CCCCCCCCCC(=O)OC [methyl decanoate]
Settings | kinematic viscosity [m2/s] | mass density [kg/m3] | refractive index | surface tension liquid-gas [mN/m]
[1], 278.15 K | – | – | 1.43209 | –
[1], 283.15 K | – | – | 1.42995 | –
[1], 288.15 K | – | – | 1.42783 | –
[1], 293.15 K | – | – | 1.42571 | –
[1], 298.15 K | – | – | 1.42359 | –
[1], 303.15 K | – | – | 1.42148 | –
[1], 308.15 K | – | – | 1.41938 | –
[1], 313.15 K | – | – | 1.41726 | –
[1], 318.15 K | – | – | 1.4151 | –
[1], 323.15 K | – | – | 1.41295 | –
[1], 328.15 K | – | – | 1.41083 | –
[1], 333.15 K | – | – | 1.40871 | –
[1], 338.15 K | – | – | 1.40659 | –
[1], 343.15 K | – | – | 1.40448 | –
[1], 348.15 K | – | – | 1.40237 | –
[1], 353.15 K | – | – | 1.40028 | –
[1], 358.15 K | – | – | 1.39819 | –
[2], 293.15 K | – | 872.34 | – | –
[2], 298.14 K | 2.09e-06 | – | – | 24.73
[2], 303.15 K | – | 864.01 | – | –
[2], 313.15 K | – | 855.73 | – | –
[2], 323.15 K | – | 847.47 | – | –
[2], 323.16 K | 1.48e-06 | – | – | 23.28
[2], 333.15 K | – | 839.2 | – | –
[2], 343.15 K | – | 830.94 | – | –
[2], 348.16 K | 1.13e-06 | – | – | 21.96
[2], 353.15 K | – | 822.61 | – | –
[2], 363.15 K | – | 814.38 | – | –
[2], 373.15 K | – | 806.06 | – | –
[2], 373.17 K | 8.74e-07 | – | – | 20.49
[2], 383.15 K | – | 797.7 | – | –
[2], 393.15 K | – | 789.29 | – | –
[2], 398.08 K | 6.87e-07 | – | – | 18.81
[2], 403.15 K | – | 780.82 | – | –
[2], 413.15 K | – | 771.74 | – | –
[2], 422.99 K | 5.61e-07 | – | – | 16.83
[2], 423.15 K | – | 763.71 | – | –
[2], 433.15 K | – | 755 | – | –
[2], 443.15 K | – | 746.3 | – | –
[2], 447.95 K | 4.52e-07 | – | – | 14.87
[2], 453.15 K | – | 737.39 | – | –
